Laboratory results taken from patent publication US10428071B2, “Carboline derivative serving as bromodomain inhibitor” (NINGBO WENDA PHARMA TECHNOLOY LTD., priority 2016, dated 2019).

Assays:
H187 cell line = assay: Cell activity detection, Alamar-Blue, H187; assay type: cell-based; conditions: Homo sapiens, NCI-H187, 72 h incubation
Description: (§1) H211 and H187 cell lines were purchased from ATCC and tested in accordance with the Alamar-Blue test kit instructions. The drugs were dissolved in 50 mM stock solution with DMSO and stored in a freezer at −20° C. The test drug stock solution was serially diluted with DMSO graded in a ratio of 1:3. Then DMSO diluted drug was serially diluted into a drug solution in 10× final concentration with cell complete culture medium. The 96-well cell culture plate was removed from the incubator, and 10 μl of culture medium containing a series of different concentrations of drug (10× final concentration) was added to a 96-well plate, and incubated at 37° C. for 72 h in CO2 incubator. The inhibition rate was plotted using GraphPad Prism 5.0 and MATILAB software by a non-linear regression method to obtain a series of dose-response curves from which the IC50 of the test sample was obtained, Table 2.

[1] = molecular target: T1, BRD4 (BD1+BD2) bromodomain protein (Homo sapiens, UniProt O60885); assay: TR-FRET BRD4 activity assay (Cayman kit); assay type: binding; conditions: room temperature 2 hours
T1 construct: BRD4 (BD1+BD2) bromodomain protein; purchased Cayman
Description: Detection of TR-FRET BRD4 Activity:
The BRD4 activity assay was performed according to the TR-FRET method in the Cayman kit. Dilute 3×BRD TR-FRET Assay Buffer 1 with ultrapure water to 1×BRD TR-FRET Assay Buffer for further use. 1×BRD TR-FRET Assay Buffer was used to dilute Tb-labeled donor and dye-labeled acceptor in 100-fold. 5 μl of diluted Tb-labeled donor and dye-labeled acceptor were added respectively to the sample well, negative control well and positive control well. The configured 1×BRD TR-FRET Assay Buffer was used to formulate a 10% DMSO solution (excessive DMSO concentration would affect the reaction, and the final concentration of DMSO was controlled at 1%), then test compounds are diluted with 10% DMSO solution to give the compound's initial concentrations of 1 μM and 100 nM, IC50 test was started from 10 μM or 100 μM, diluted in 3-fold to give 8 or 10 concentration points. In addition to the control wells, 2 μl of the diluted test compound solution was added to the wells used, and 2 μl of the previously prepared 10% DMSO solution was added to the control wells. The BET Bromodomain Ligand and Non-acetylated Ligand 1 were respectively diluted in 40 fold with 1×BRD TR-FRET Assay Buffer. 5 μl of diluted BET Bromodomain Ligand was added to sample wells and positive control wells, and 5 μl of diluted non-acetylated ligand 1 was added into the negative control wells. 1×BRD TR-FRET Assay Buffer was used to dilute BRD4 (BD1+BD2) bromodomain protein to 6 ng/μl (18 ng/well), and 3 μl of diluted BRD4 (BD1+BD2) bromodomain protein was added to each well. The plate was sealed and mixed well. The reaction was performed at room temperature for 2 hours, and then fluorescence signals (320 nm stimulation, 665 nm, 615 nm emission) were detected with the ENVISION (Perkinelmer) instrument. The inhibition rate was calculated for each well by positive control wells and negative control wells, and average value was calculated for multiple wells. The results were plotted with Software PRISM 5.0 to fit the half inhibitory activity (IC50) for each test compound, Table 1.

H211 cell line = assay: Cell activity detection, Alamar-Blue, H211; assay type: cell-based; conditions: Homo sapiens, NCI-H211, 72 h incubation
Description: as §1

MDA-MB-231 cell line = assay: Cell activity detection, CCK-8, MDA-MB-231; assay type: cell-based; conditions: Homo sapiens, CCK-8, 72 hours incubation
Description: MDA-MB-231 cell line was purchased from Shanghai Cell Resource Center of the Chinese Academy of Sciences, and was performed according to the method in the kit of CCK-8. The cells in the logarithmic growth phase were collected, counted, and the cells were re-suspended in complete medium to adjust the cell concentration to a suitable concentration (determined according to cell density optimization test results), inoculated in 96-well plates, and each well was added with 100 μl of cell suspension. Cells were incubated at 37° C., in a 100% relative humidity and 5% CO2 incubator for 24 hours. The compound was diluted to the appropriate effective concentration determined with medium and the cells were added by 25 μl/well. The final concentration of the compound was diluted to from 1 μM to 0 μM graded in three-fold dilution to give 10 concentration points. The cells were incubated at 37° C., in a 100% relative humidity and 5% CO2 incubator for 72 hours. 1/10 volume of CCK-8 was added directly to the cell culture medium and incubated in a 37° C. incubator for 2-4 hours. The absorbance at 450 nm was determined on a SpectraMax M5 Microplate Reader after gentle shaking. Absorbance at 650 nm was taken as the reference. The IC50 curve fitting was performed using soft Graphpad Prism 5 and the IC50 value was calculated.

| Compound | IC50 (H187 cell line) | IC50 [1] | IC50 (H211 cell line) | IC50 (MDA-MB-231 cell line) |
| --- | --- | --- | --- | --- |
| Cc1nnn(C)c1-c1cnc2c3cc4c(cc3n([C@H](c3ccccc3)C3CCOCC3)c2c1)C(=O)N(C)C4 [Compound 1] | 21 nM | 3.6 nM | 7.2 nM |  |
| [2H]C([2H])([2H])c1nnn(C)c1-c1cnc2c3c4cnn(C)c4ccc3n([C@H](c3ccccc3)C3CCOCC3)c2c1 [Compound 13] | 5.5 nM | 1 nM | 2 nM | 1.8 nM |
| Cc1nnn(C)c1-c1cnc2c3c4cnn(C)c4c(F)cc3n([C@H](c3ccccc3)C3CCOCC3)c2c1 [Compound 8] | 6.5 nM | 2.6 nM | 4.2 nM | 3.2 nM |
| Cc1nnn(C)c1-c1cnc2c3c4cn[nH]c4ccc3n([C@H](c3ccccc3)C3CCOCC3)c2c1 [Compound 11] | 5.5 nM | 1 nM | 4.2 nM | 3.7 nM |
| Cc1nnn(C)c1-c1cnc2c3c4c(ccc3n([C@H](c3ccccc3)C3CCOCC3)c2c1)C(=O)N(C)C4 [Compound 3] | 35 nM | 1.9 nM | 5.2 nM |  |
| Cc1nnn(C)c1-c1cnc2c3c4c(ccc3n([C@H](c3ccccc3)C3CCOCC3)c2c1)cnn4C [Compound 7] | 6.5 nM | 5.2 nM | 3.5 nM | 4.6 nM |
| Cc1nnn(C)c1-c1cnc2c3c4cc[nH]c4ccc3n([C@H](c3ccccc3)C3CCOCC3)c2c1 [Compound 10] | 8.5 nM | 1.5 nM | 32 nM | 8.1 nM |
| Cc1nnn(C)c1-c1cnc2c3c4cnn(C)c4ccc3n([C@H](c3ccccc3)C3CCOCC3)c2c1 [Compound 6] | 5.5 nM | 1 nM | 2 nM | 1.6 nM |
| Cc1nnn(C)c1-c1cnc2c3cc4c(cc3n([C@H](c3ccccc3)C3CCOCC3)c2c1)CN(C)C4=O [Compound 2] | 19 nM | 2.2 nM | 8.5 nM |  |
| Cc1nnn(C)c1-c1cnc2c3cc4cnn(C)c4cc3n([C@H](c3ccccc3)C3CCOCC3)c2c1 [Compound 5] | 35 nM | 3.8 nM | 29.5 nM |  |
| Cc1nnn(C)c1-c1cnc2c3cc4c(cnn4C)cc3n([C@H](c3ccccc3)C3CCOCC3)c2c1 [Compound 4] | 37 nM | 4.6 nM | 11.2 nM |  |
| Cc1nnn(C)c1-c1cnc2c3c4ccn(C)c4ccc3n([C@H](c3ccccc3)C3CCOCC3)c2c1 [Compound 9] | 7 nM | 3.5 nM | 6.7 nM |  |
| Cc1nnn(C)c1-c1cnc2c3c4cccnc4ccc3n([C@H](c3ccccc3)C3CCOCC3)c2c1 [Compound 12] | 7.5 nM | 3.2 nM | 12 nM |  |
| [2H]C([2H])([2H])c1nnn(C)c1-c1cnc2c3c4cn[nH]c4ccc3n([C@H](c3ccccc3)C3CCOCC3)c2c1 [Compound 14] | 5.5 nM | 1 nM | 4 nM | 3.5 nM |
